Measurements reported in paper PMC6130628, “Some pharmacokinetic parameters of salvianolic acid A following single-dose oral administration to rats” (Pharmaceutical Biology, 2018).
Read-outs that look alike come from different tables or passages of the source.

Legend:
[1] = Pharmacokinetic study in vivo (plasma, LC–MS, noncompartmental); conditions: both sexes, Sprague-Dawley, rat, rats; for MRT last: read-out: MRT0–t; for AUC(0-t) / Cmax: single dose
Protocol: Ninety-six healthy, intact Sprague-Dawley rats (male/female, 1/1, 185-215 g, Certificate No. SCXK 2006-0009) were purchased from Vital River Laboratories (Beijing, China). The rats were maintained in air-conditioned animal quarters with alternating 12 h light/dark cycles at a room temperature of 22 ± 2 °C and a relative humidity of 50 ± 10%. The rodents were given a commercial rat chow and water ad libitum. The experiment started after acclimation to the facilities for 7 days. All animal studies were conducted in accordance with “Principles of laboratory animal care” (NIH publication No. 85-23, revised 1985) and under protocols approved by the Ethic Committee of Laboratory Animals of the Affiliated Hospital of Qingdao University ([…] 2013-2-4-01). Rats were fasted overnight (∼12 h) and had free access to water throughout the experimental period. […] The doses applied in this study were determined according to, on the one hand, the doses applied in pharmacodynamic experiments in rats (Yang et al. [2011a]; Yang et al. [2011b]; Yu et al. [2012]; Hou et al. [2017]), and on the other hand, the results of our preliminary absorption experiments. The blood samples were taken crossly from the orbital sinus into tubes pretreated with heparin before dosing and subsequently at 0.083, 0.167, 0.25, 0.333, 0.5, 0.75, 1, 2, 4, 8, 12 and 24 h postdosing. After blood sampling, the samples were centrifuged at 4,500 rpm for 15 min at 4 °C to obtain 200 μL of plasma samples. These samples were immediately frozen and maintained at -80 °C until analysis. Plasma samples were thawed at room temperature before processing. To a 200 μL aliquot of plasma sample, 10 μL of VC (10 mg/mL) and 10 μL of the IS spiking solution (butyl paraben, 1 μg/mL) were added. Then, the mixture was acidified with 100 μL of 1 mol/L HCl and vortex-mixed with 800 μL of EtOAc for 3 min. […] EtOAc (800 μL) was added again to the lower aqueous phase and the extraction process was repeated. […] The residue was reconstituted in 100 μL of MeOH-H2O (50:50, v/v, containing VC 100 μg/mL). After centrifugation at 13,400 rpm for 5 min, 20 μL of the supernatant was injected to the LC-MS system. DAS pharmacokinetic software Data Analysis System Version 3.0 (Bontz Inc., Beijing, China) was used for pharmacokinetic analysis of Sal A concentrations. The noncompartmental model was applied for analysis of the data following intravenous and oral administration of Sal A. The peak plasma concentration (Cmax), the corresponding time (Tmax), the mean residence time (MRT) and the area under the concentration-time curve (AUC) could all be obtained. After intravenous and oral administration of Sal A to rats, plasma concentration was determined by LC-MS. The data obtained from each group was averaged. […] The oral bioavailability (F) was calculated by using AUCoral/dose divided by AUCiv/dose.

[2] = Bidirectional transport experiments in the Caco-2 cell culture model; assay type: in vitro ADME; conditions: human; for Papp A→B at 180 min: read-out: Papp Apical → basolateral; for Papp B→A at 180 min: read-out: Papp Basolateral → apical
Protocol: (§1) Caco-2 cells (passage number 34–36, American Type Culture Collection, Manassas, VA) were cultured at 37 °C in an atmosphere of 5% CO2 and 90% relative humidity in Dulbecco’s modified Eagle’s medium supplemented with 10% fetal bovine serum, 1% penicillin–streptomycin, 1% HEPES, 1% sodium pyruvate and 1% minimal essential medium nonessential amino acids. After harvesting at 90% confluence, the cells were seeded on to 0.4 μm polycarbonate membrane transwell inserts (12 mm diameter) at a density of 1.5 × 10^5 cells/cm^2. The culture media was changed every other day during the first 7 days after seeding and once a day thereafter. Cell monolayers were ready for experiments from 20 to 24 days postseeding.
(§2) Experiments in triplicate were performed in HBSS (pH =7.4).To ensure the stability of Sal A in HBSS, VC was applied in this study as stabilizer. The monolayers were washed three times with prewarmed HBSS (37 °C) before use. The integrity of the Caco-2 monolayers was monitored by measuring the transepithelial electrical resistance, and only monolayers with values ≥400 Ω/cm^2 were used. The monolayers were incubated with HBSS at 37 °C for 30 min, and then the incubation medium was aspirated. Afterwards, bidirectional transport experiments were conducted. Sal A solution of appropriate concentrations in HBSS (containing VC 1 0^−4 mol/L) were loaded to the donor compartments and the blank HBSS (containing VC 1 0^−4 mol/L) was added to the receiver compartments. Seven sequential samples (50 μL) were collected at different times (0, 30, 60, 90, 120, 150, 180 min) from the receiver side. The same volume of receiver medium was replaced after each sampling. The collected samples were added into tubes with 40 μL MeOH–H2O (50:50, v/v, containing VC 100 μg/mL). Then, 10 μL of the IS spiking solution (butyl paraben, 1 μg/mL) was added. After centrifugation at 13,400 rpm for 5 min, 20 μL of the supernatant was injected to the LC–MS system.
(§3) Influence of the stabilizer on the transport of Sal A has also been tested under the condition of different concentrations of VC. The samples were collected, treated and analyzed according to the same procedure.
(§4) The apparent permeability coefficient (Papp) was calculated according to the following equation: Papp=(ΔQ/Δt)/(A×C0) where ΔQ/Δt is the linear appearance rate of the tested compound in the receiver compartments, A is the surface area of the cell monolayer and C0 is the initial concentration of the tested compound in the donor side.

Caco-2 cell monolayer = experiment: as above; assay type: in vitro ADME
Protocol: as §1, §2, §3, §4

[3] = Caco-2, pH 7.4, Sal A 10^–4/3 mol/L, HBSS pH 7.4, VC 10^−4 mol/L
[4] = Caco-2, pH 7.4, Sal A 10^–4/9 mol/L, HBSS pH 7.4, VC 10^–4 mol/L
[5] = Caco-2, pH 7.4, Sal A 10^–4/9 mol/L, VC 10^–3/3 mol/L
[6] = Caco-2, pH 7.4, Sal A 10^–4/9 mol/L, VC 10^–3 mol/L
[7] = Caco-2, pH 7.4, Sal A 10^–4/27 mol/L, HBSS pH 7.4, VC 10^−4 mol/L

MRT last ([1]; iv, 50 ug/kg, i.v. 50 µg/kg): 0.62 h | Tmax ([1]; iv, 50 ug/kg, i.v. 50 µg/kg, read-out: Tmax): 0.08 h | half-life ([1]; iv, 50 ug/kg, i.v. 50 µg/kg, read-out: t1/2 (converted)): 6.16 h | AUC(0-t) ([1]; iv, 50 ug/kg, i.v. 50 µg/kg): 205 ng·h/mL | Cmax ([1]; iv, 50 ug/kg, i.v. 50 µg/kg): 579 ng/mL | bioavailability ([1]; po, 5 mg/kg, oral 5 mg/kg vs i.v. 50 µg/kg, AUCoral/dose divided by AUCiv/dose, read-out: F (oral bioavailability)): 0.52% | Tmax ([1]; po, 5 mg/kg, oral 5 mg/kg, read-out: Tmax): 1 h | half-life ([1]; po, 5 mg/kg, oral 5 mg/kg, read-out: t1/2 (converted)): 1.96 h | bioavailability ([1]; po, 10 mg/kg, oral 10 mg/kg vs i.v. 50 µg/kg, read-out: F (oral bioavailability)): 0.41% | Tmax ([1]; po, 10 mg/kg, oral 10 mg/kg, read-out: Tmax): 1 h | half-life ([1]; po, 10 mg/kg, oral 10 mg/kg, read-out: t1/2 (converted)): 1.72 h | bioavailability ([1]; po, 20 mg/kg, oral 20 mg/kg vs i.v. 50 µg/kg, read-out: F (oral bioavailability)): 0.39% | Tmax ([1]; po, 20 mg/kg, oral 20 mg/kg, read-out: Tmax): 1 h | half-life ([1]; po, 20 mg/kg, oral 20 mg/kg, read-out: t1/2 (converted)): 1.79 h | bioavailability ([1]; po, 20 mg/kg, oral in pure form, over the doses 5, 10 and 20 mg/kg, read-out: absolute (oral) bioavailability): 0.39 to 0.52% | half-life ([1]; po, 20 mg/kg, oral, over the doses 5, 10 and 20 mg/kg, read-out: half-life period (t1/2)): 1.72 to 1.96 h | Tmax ([1]; po, oral, 5–20 mg/kg, read-out: time to peak concentration in plasma (Tmax)): ≤ 1 h | MRT last ([1]; oral 5 mg/kg): 2.91 h | AUC(0-t) ([1]; oral 5 mg/kg): 106 ng·h/mL | Cmax ([1]; oral 5 mg/kg): 31.5 ng/mL | MRT last ([1]; oral 10 mg/kg): 2.33 h | AUC(0-t) ([1]; oral 10 mg/kg): 167 ng·h/mL | Cmax ([1]; oral 10 mg/kg): 57.4 ng/mL | MRT last ([1]; oral 20 mg/kg): 2.36 h | AUC(0-t) ([1]; oral 20 mg/kg): 317 ng·h/mL | Cmax ([1]; oral 20 mg/kg): 112 ng/mL | Papp A→B at 180 min [2, 3]: 0.156 ± 0.0412 ×10⁻⁶ cm/s | Papp B→A at 180 min [2, 3]: 0.508 ± 0.0118 ×10⁻⁶ cm/s | Papp A→B at 180 min [2, 4]: 0.152 ± 0.0055 ×10⁻⁶ cm/s | Papp B→A at 180 min [2, 4]: 0.605 ± 0.0175 ×10⁻⁶ cm/s | Papp A→B at 180 min [2, 5]: 0.155 ± 0.003 ×10⁻⁶ cm/s | Papp B→A at 180 min [2, 5]: 0.507 ± 0.087 ×10⁻⁶ cm/s | Papp A→B at 180 min [2, 6]: 0.153 ± 0.0028 ×10⁻⁶ cm/s | Papp B→A at 180 min [2, 6]: 0.478 ± 0.0453 ×10⁻⁶ cm/s | Papp A→B at 180 min [2, 7]: 0.641 ± 0.0576 ×10⁻⁶ cm/s | Papp B→A at 180 min [2, 7]: 0.987 ± 0.121 ×10⁻⁶ cm/s | efflux ratio at 180 min ([2]; pH 7.4, Caco-2 monolayer, read-out: ratio of PB–A to PA–B (Papp basolateral to apical / apical to basolateral)): ~3 | influence of VC concentration on the amount of Sal A transported (Caco-2 cell monolayer; different VC concentrations, p> 0.05): no significant difference | membrane permeability (classification by Papp) (Caco-2 cell monolayer; poorly absorbed: Papp <1 × 10^−6 cm/s): poor membrane permeability
Compound: O=C(/C=C/c1ccc(O)c(O)c1/C=C/c1ccc(O)c(O)c1)O[C@H](Cc1ccc(O)c(O)c1)C(=O)O [Sal A, Salvianolic acid A]
